In PubChem BioAssay AID588394 (NMMLSC, 2011):
Active and inactive are the calls of the source.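 How the source made its calls: active means half-maximal effective concentration at most 10 microM and response span at least 30% from a well-fitted curve; inactive means the rest.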

target: Rab7 GTPase wild-type (Canis lupus familiaris), GST fusion; assay: blockers of fluorescent GTP uptake by Rab7 – biochemical, dog Rab7, bead multiplex flow cytometry, round 1, SAR follow-up (AID 588394); settings: Bead-based flow cytometry, Bodipy-FL-GTP binding, EDTA

| SMILES | EC50 [nM] |
| --- | --- |
| CC1(C)Cc2c(sc(NC(=S)NC(=O)c3cccc(Br)c3)c2C(=O)O)CO1 | 2280 |
| CC1(C)Cc2c(sc(NC(=S)NC(=O)c3ccccc3F)c2C(=O)O)CO1 | 56 |
| CC1(C)CCc2sc(NC(=S)NC(=O)c3ccccc3)c(C(=O)O)c2C1 | 72 |
| COc1cccc(C(=O)NC(=S)Nc2sc3c(c2C(=O)O)CC(C)(C)OC3)c1 | 55 |
| CC1(C)Cc2c(sc(NC(=S)NC(=O)c3cccc(F)c3)c2C(=O)O)CO1 | 308 |
| CC1(C)Cc2c(sc(NC(=S)NC(=O)c3ccccc3Br)c2C(=O)O)CO1 | 46 |
| COc1ccc(C(=O)NC(=S)Nc2sc3c(c2C(=O)O)CC(C)(C)OC3)cc1 | 126 |
| CC1(C)Cc2c(sc(NC(=S)NC(=O)c3ccc(Br)cc3)c2C(=O)O)CO1 | 269 |

same assay, conditions: Bead-based flow cytometry, Bodipy-FL-GTP binding, EDTA; at 100 µM (top of the series)

| SMILES | percent response, lower = inhibition |
| --- | --- |
| CC1(C)Cc2c(sc(NC(=O)Cc3ccccc3)c2C(=O)O)CO1 | inactive |
| CCOC(=O)c1c(NC(=O)Nc2ccc(C)cc2)sc2c1CCN(C)C2 | inactive |
| COC(=O)c1c(N)sc2c1CC(C)(C)OC2 | inactive |
| CN1CCc2c(sc3nc(Nc4ccc(F)cc4)oc(=O)c23)C1 | inactive |
| Cc1ccc(Nc2nc3sc4c(c3c(=O)o2)CCN(C)C4)cc1 | inactive |
| CCOC(=O)c1c(NC(=O)NC(C)(C)C)sc2c1CCN(C)C2 | inactive |
| CCOC(=O)c1c(NC(=S)Nc2ccccc2)sc2c1CC(C)(C)OC2 | inactive |
| CCOC(=O)c1c(NC(=O)Nc2ccc(F)cc2)sc2c1CCN(C)C2 | inactive |
| CCOC(=O)c1c(N)sc2ccccc12 | inactive |
| CC1(C)Cc2c(sc(NC(=S)Nc3ccccc3)c2C(=O)O)CO1 | inactive |
| CCOC(=O)c1c(NC(=S)NC(=O)c2ccccc2)sc2ccccc12 | inactive |
| Cc1ccc(NC(=O)Nc2sc3c(c2C(=O)O)CCN(C)C3)cc1 | inactive |
| CN1CCc2c(sc(NC(=O)Nc3ccc(F)cc3)c2C(=O)O)C1 | inactive |
| CC(C)(C)OC(=O)c1c(NC(=S)NC(=O)c2ccccc2)sc2c1CCOC2 | inactive |
